In paper PMC5391125, “Fatty acid DSF binds and allosterically activates histidine kinase RpfC of phytopathogenic bacterium Xanthomonas campestris pv. campestris to regulate quorum-sensing and virulence” (PLoS Pathogens, 2017):

Legend:
RpfC^Δsensor liposome [1] = target: T1, RpfC^Δsensor liposome (Xanthomonas campestris pv. campestris, UniProt P0C0F7); assay: MST binding, RpfC^Δsensor liposome
T1 construct: His6 (C); made in house; host or cells: E. coli BL21(DE3), pET30a
Protocol: (§1) Binding reactions of RpfC to DSF was measured by microscale thermophoresis in a Monolith NT.Label Free (Nano Temper Technologies GMBH, Germany) instrument which detects changes in size, charge and conformation induced by binding. RpfC liposomes were collected with centrifugation of 200,000 g for 40 min and resuspended in MST buffer (50 mM Tris-HCl pH 7.8, 150 mM NaCl, 10 mM MgCl2, 0.05% Tween-20) to an approximate concentration of 0.1 μM. A range of concentration of DSF (range from 0.06 μM to 2 mM) in assay buffer (50 mM Tris-HCl pH 7.8, 150 mM NaCl, 10 mM MgCl2, 0.05% Tween-20, 5% methanol) was incubated with RpfC liposomes (1:1, v/v) for 10 minutes. The sample was loaded into the NT.Label Free standard capillaries and measured with 20% LED power and 40% MST power. Purified sensor protein was dissolved in reaction buffer (50 mM Tris-HCl pH 8.5, 150 mM NaCl, 0.1% Tween-20) to a final concentration as 8 μM. Dilute DSF from 0.0122 μM to 25 μM in buffer (50 mM Tris-HCl pH 8.5, 150 mM NaCl, 0.25‰ methanol). Different concentrations of DSF and sensor protein (1:1, v/v) were mixed and loaded into NT.Label Free standard capillaries. The label free MST assay was performed with 20% LED power and 40% MST power. KD Fit function of the Nano Temper Analysis Software Version 1.5.41 was used to fit curve and calculate the value of dissociation constant (Kd).

RpfC^FL liposome [2] = target: T2, RpfC^FL liposome (Xanthomonas campestris pv. campestris, UniProt P0C0F7); assay: Limited proteolysis of RpfC^FL liposome; conditions: with AMP-PNP, vs DSF minus control
T2 construct: His6 (C); made in house; host or cells: E. coli BL21(DE3), pET30a
Protocol: The limited proteolysis experiments were performed at 0°C with 1.4 μg RpfC liposomes in a reaction buffer containing 50 mM Tris-HCl, pH 8.0, 100 mM NaCl, 2 mM DTT and 1.13 mM AMP-PNP. Trypsin was added to a final concentration of 0.018 μg μl^-1 to degrade RpfC liposome. Aliquot was removed at indicated time and the reaction was stopped by 5 × SDS loading buffer (250 mM Tris-HCl pH 6.8, 10% (w/v) SDS, 0.5% (w/v) bromophenol blue, 50% (v/v) glycerol, 25 mM PMSF). Samples were separated by 12% SDS-PAGE gel and protein bands were detected by silver staining. The sequence of the different peptide fragments were determined by a nanoLC-MS/MS with Orbitrap Fusion system (Thermo scientific, USA).

[3] = target: T3, soluble RpfC protein without input region (RpfC^Δinput) (Xanthomonas campestris pv. campestris, UniProt P0C0F7); assay: MST binding, soluble RpfC^Δinput; conditions: RpfC^Δinput 0.1 μM
T3 construct: a truncated, soluble RpfC protein (RpfC^Δinput) lacking the N-terminal input region (including sensor and TM domains) was obtained and purified; His6 (C); made in house; host or cells: E. coli BL21(DE3), pET30a

RpfC^S18A liposome = target: T4, RpfC^S18A liposome (Xanthomonas campestris pv. campestris, UniProt P0C0F7, S18A); assay: MST binding, RpfC^S18A liposome
T4 construct: His6 (C); made in house; host or cells: E. coli BL21(DE3), pET30a
Protocol: as §1, with “The label free MST assay was performed with 20% LED power and 40% MST power. KD Fit function of the Nano Temper Analysis Software Version 1.5.41 was used to fit curve and calculate the value of dissociation constant (Kd).” left out
(§2) Supplementary file ppat.1006304.s004.pdf: S4 Fig Substitution of essential amino acid impact DSF-RpfC interaction. Microscale thermophoresis (MST) was used to quantify the binding affinity between DSF and RpfC derivates. […]

RpfC^D17A liposome = target: T5, RpfC^D17A liposome (Xanthomonas campestris pv. campestris, UniProt P0C0F7, D17A); assay: MST binding, RpfC^D17A liposome
T5 construct: His6 (C); made in house; host or cells: E. coli BL21(DE3), pET30a
Protocol: as §1, with “The label free MST assay was performed with 20% LED power and 40% MST power. KD Fit function of the Nano Temper Analysis Software Version 1.5.41 was used to fit curve and calculate the value of dissociation constant (Kd).” left out
as §2

RpfC^FL IMV = target: T6, RpfC^FL IMV (Xanthomonas campestris pv. campestris, UniProt P0C0F7); assay: In vitro autokinase assay, RpfC^FL inverted membrane vesicles; assay type: biochemical; conditions: 10 μM DSF
T6 construct: His6 (C); made in house; host or cells: E. coli BL21(DE3), pET30a
Protocol: (§3) in vitro phosphorylation assay was conducted as described in our previous study. For autophosphoylation, RpfC liposomes or IMV were incubated with 100 μM ATP containing 10 μCi [γ-^32P]ATP (PerkinElmer, USA) in autophosphorylation buffer (50 mM Tris-HCl, pH 7.8, 2 mM DTT, 25 mM NaCl, 25 mM KCl, 5 mM MgCl2) for indicated time (28°C). If necessary, DSF was added into the mixture 20 min before addition of ATP. The reaction was stopped with 6 × SDS-PAGE loading buffer. The phosphorylated proteins were separated by 12% SDS-PAGE. After SDS-PAGE electrophoresis, gels were separated from back glass plate and placed in a Ziploc bag and exposed to a phosphor screen for 1 hour. The screen was scanned with a PhosphorImage system (Amersham Biosciences, USA) at […]. If necessary, signal intensity was measured by Quantity One software (Bio-Rad).

RpfC^Q22A liposome = target: T7, RpfC^Q22A liposome (Xanthomonas campestris pv. campestris, UniProt P0C0F7, Q22A); assay: MST binding, RpfC^Q22A liposome
T7 construct: His6 (C); made in house; host or cells: E. coli BL21(DE3), pET30a
Protocol: as §1, with “The label free MST assay was performed with 20% LED power and 40% MST power. KD Fit function of the Nano Temper Analysis Software Version 1.5.41 was used to fit curve and calculate the value of dissociation constant (Kd).” left out
as §2

RpfC^Δsensor liposome [4] = target: T1, RpfC^Δsensor liposome; assay: Thermal shift assay, RpfC^Δsensor liposome; assay type: binding
Protocol: (§4) DSF was mixed with purified proteins or liposomes of RpfC to a final concentration of 0 μM, 5 μM or 10 μM respectively in the reaction buffer (50 mM Tris-HCl pH 7.8, 25 mM NaCl, 100 mM KCl). The protein concentration was 0.5–1 μg/μl. The TSA was performed by a Prometheus NT.48 nanoDSF device with a temperature gradient of 20–95°C, 1°C /min. Unfolding transition points were determined according to the changes of intrinsic tryptophan fluorescence at 330 nm, 350 nm. The ratio of fluorescence and the melting temperature (Tm) were calculated by the NT Melting Control software (NanoTemper Technologies).

soluble RpfC^Δinput = target: T8, soluble RpfC^Δinput (Xanthomonas campestris pv. campestris, UniProt P0C0F7); assay: Thermal shift assay, soluble RpfC^Δinput; assay type: binding
T8 construct: a truncated, soluble RpfC protein (RpfC^Δinput) lacking the N-terminal input region (including sensor and TM domains) was obtained and purified; His6 (C); made in house; host or cells: E. coli BL21(DE3), pET30a
Protocol: as §4

RpfC^FL = target: T9, RpfC^FL (Xanthomonas campestris pv. campestris, UniProt P0C0F7); assay: Dose-response of DSF on RpfC autokinase activity; assay type: biochemical
T9 construct: His6 (C); made in house; host or cells: E. coli BL21(DE3), pET30a
Protocol: as §3

RpfC^S3A liposome = target: T10, RpfC^S3A liposome (Xanthomonas campestris pv. campestris, UniProt P0C0F7, S3A); assay: Autokinase assay, RpfC^S3A liposome; assay type: biochemical; conditions: 0.75 μM DSF, 5 min
T10 construct: His6 (C); made in house; host or cells: E. coli BL21(DE3), pET30a
Protocol: as §3

RpfC^FL liposome [5] = target: T2, RpfC^FL liposome; assay: Microscale thermophoresis (MST) binding, RpfC^FL liposome; conditions: RpfC liposome 0.1 μM, read-out: dissociation constant (Kd)
Protocol: as §1

`CC(C)CCCCCCC/C=C\C(=O)O` [DSF, cis-11-methyl-dodecenoic acid] was tested, and the “binding to DSF” value (RpfC^Δsensor liposome [1]) was “didn’t bind”, the “DHp-CA fragment (30 kDa) after trypsin limited proteolysis” value (RpfC^FL liposome [2]) was “large accumulation” and the “binding to DSF” value [3] was “didn’t bind”. For the same compound, the “binding between DSF and RpfC liposome” value (RpfC^S18A liposome) was “completely eliminated the binding”, the “binding between DSF and RpfC liposome” value (RpfC^D17A liposome) was “completely eliminated the binding” and the “level of RpfC^FL-P phosphorylation compared with the control” value (RpfC^FL IMV) was “approximately doubled”. The “time of increase in phosphorylation level post DSF addition” value (RpfC^FL IMV) was 30 s, the “binding between DSF and RpfC liposome” value (RpfC^Q22A liposome) was “completely eliminated the binding” and the “thermal shift after DSF stimulation” value (RpfC^Δsensor liposome [4]) was “no thermal shift was detected”. For the same compound, the “thermal shift after DSF stimulation” value (soluble RpfC^Δinput) was “no thermal shift was detected”, the “DSF concentration at which RpfC^FL-P levels tapered off (saturation)” value (RpfC^FL) was roughly 20 µM and the “DSF concentration sufficient to elicit a detectable increase in RpfC^FL-P level” value (RpfC^FL) was 0.5 µM. For the same compound, the “RpfC-P level under DSF stimulation” value (RpfC^S3A liposome) was “remarkably increased” and the Kd (RpfC^FL liposome [5]) was 820 ± 120 nM.
